Test results as given in ChEMBL document CHEMBL1201862, “PubChem BioAssay data set” (2004).
Activity calls are given as the source filed them.

Assays:
NADPH oxidase 1 = NADPH oxidase 1 (Homo sapiens, UniProt Q9Y5S8); assay: Late-stage luminescence-based cell-based dose response assay to identify inhibitors of NADPH oxidase 1 (NOX1): Synthesized analogs.; assay type: functional
[1] = molecular target: G-protein coupled receptor 55 (Homo sapiens, UniProt Q9Y2T6); assay: GPR55 agonists via beta-arrestin recruitment, primary screen, imaging, U2OS cells, beta-arrestin-GFP redistribution (AID 1961); assay type: functional
BJ [2] = assay: cytotoxicity toward BJ-TERT fibroblasts, dose response, cell-based, RAS-independent, luminescence (AID 1933); assay type: functional; details: Homo sapiens
BJ [3] = assay: cells; assay type: functional, cell-based; details: Homo sapiens
[4] = cytotoxicity toward DRD oncogenic fibroblasts, dose response, cell-based, non-viral oncogenic, luminescence (AID 1934); assay type: functional; details: Homo sapiens
[5] = Luminescent dose response cell-based high throughput screening assay for inhibitors of the Janus kinase 2 mutant JAK2V617F. [Related pubchem assays: 1446 (Primary screen.), 1521 (Confirmation assay.), 1486 (Counter screen.)]; assay type: functional
BJ [6] = assay: cytotoxicity toward BJ-TERT-LT-ST fibroblasts, dose response, cell-based, RAS-independent, luminescence (AID 1935); assay type: functional; details: Homo sapiens;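 also: BJ fibroblasts immortalized with TERT plus LT and ST oncogenes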
[7] = molecular target: Peroxisome proliferator-activated receptor gamma/Nuclear receptor coactivator 3 (Homo sapiens, UniProt P37231); assay type: functional;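 also: agonist potency for raising coactivator recruitment to the receptor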
[8] = molecular target: Peroxisome proliferator-activated receptor gamma/Nuclear receptor coactivator 2 (Homo sapiens, UniProt P37231); assay type: functional;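 also: agonist potency for raising coactivator recruitment to the receptor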
[9] = molecular target: Peroxisome proliferator-activated receptor gamma/Nuclear receptor corepressor 2 (Homo sapiens, UniProt P37231+Q9Y618); assay: Counterscreen for NR2E3 inverse agonists: TR-FRET-based biochemical high throughput dose response assay to identify inverse agonists of the interaction between peroxisome proliferator-activated receptor gamma (PPARg) and nuclear receptor co-repressor 2 (NCOR2).; assay type: functional
[10] = molecular target: Photoreceptor-specific nuclear receptor (Homo sapiens, UniProt Q9Y5X4); assay: NR2E3 inverse agonists, dose response, biochemical, TR-FRET (AID 463256); assay type: functional
[11] = molecular target: Peroxisome proliferator-activated receptor gamma/Nuclear receptor coactivator 1 (Homo sapiens, UniProt P37231); assay type: functional;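 also: agonist potency as compounds enhance coactivator SRC-1 recruitment to PPARgamma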
[12] = molecular target: T1, Zinc finger protein mex-5 (Caenorhabditis elegans, UniProt Q9XUB2); assay: MEX-5/TCR-2 RNA interaction inhibitors, dose response, biochemical, C. elegans, fluorescence polarization (AID 1960)
T1 sequence (Q9XUB2 whole entry): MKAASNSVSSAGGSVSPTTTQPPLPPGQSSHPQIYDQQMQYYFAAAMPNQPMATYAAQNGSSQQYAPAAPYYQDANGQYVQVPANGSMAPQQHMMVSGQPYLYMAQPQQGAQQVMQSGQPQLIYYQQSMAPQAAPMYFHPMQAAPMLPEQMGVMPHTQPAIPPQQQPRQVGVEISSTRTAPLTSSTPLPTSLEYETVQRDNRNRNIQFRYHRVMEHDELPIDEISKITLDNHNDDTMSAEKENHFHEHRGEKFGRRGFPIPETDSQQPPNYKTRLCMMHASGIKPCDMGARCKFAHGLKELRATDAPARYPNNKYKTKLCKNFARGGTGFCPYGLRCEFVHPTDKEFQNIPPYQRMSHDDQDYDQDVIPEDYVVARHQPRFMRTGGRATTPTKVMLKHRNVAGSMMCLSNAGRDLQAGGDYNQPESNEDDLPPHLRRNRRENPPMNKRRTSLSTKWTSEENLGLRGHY

14-3-3 protein gamma = 14-3-3 protein gamma (Homo sapiens, UniProt P61981); assay: modulators of 14-3-3 gamma client binding – dose response (AID 711); assay type: functional
[13] = molecular target: T2, RNA-binding protein pos-1 (Caenorhabditis elegans, UniProt G5EF15); assay: inhibitors of POS-1/mex-3 RNA binding, dose response, biochemical, fluorescence polarization (AID 1964);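 also: purified POS-1 fused to maltose binding protein made in E. coli; potency of compounds blocking POS-1 binding to fluorescent RNA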
T2 sequence (G5EF15 whole entry): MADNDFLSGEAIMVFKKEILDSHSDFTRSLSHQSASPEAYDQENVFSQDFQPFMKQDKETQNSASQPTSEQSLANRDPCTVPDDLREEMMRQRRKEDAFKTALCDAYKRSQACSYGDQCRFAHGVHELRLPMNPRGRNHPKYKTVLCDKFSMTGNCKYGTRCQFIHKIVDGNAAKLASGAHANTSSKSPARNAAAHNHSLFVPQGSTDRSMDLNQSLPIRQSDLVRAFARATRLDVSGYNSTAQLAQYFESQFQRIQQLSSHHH

[14] = NIH-3T3 fibroblast cytotoxicity, dose response, cytotoxicity control, cell-based, fluorescence, Alamar Blue, secondary assay (AID 2327); assay type: functional;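 also: NIH-3T3 mouse fibroblasts cultured with fluconazole at 8 µg/mL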
[15] = molecular target: Heat shock protein HSP 90-alpha (Homo sapiens, UniProt P07900); assay type: functional, organism-based
[16] = C. albicans growth with fluconazole, confirmation, fluorescence, retest (AID 2467); assay type: functional, cell-based
[17] = molecular target: T3, Mannose-6-phosphate isomerase (Homo sapiens, UniProt P34949); assay: human PMI inhibitors, high substrate, primary screen, biochemical, fluorescence intensity, high mannose 6-phosphate (AID 1220)
T3 sequence (P34949 whole entry): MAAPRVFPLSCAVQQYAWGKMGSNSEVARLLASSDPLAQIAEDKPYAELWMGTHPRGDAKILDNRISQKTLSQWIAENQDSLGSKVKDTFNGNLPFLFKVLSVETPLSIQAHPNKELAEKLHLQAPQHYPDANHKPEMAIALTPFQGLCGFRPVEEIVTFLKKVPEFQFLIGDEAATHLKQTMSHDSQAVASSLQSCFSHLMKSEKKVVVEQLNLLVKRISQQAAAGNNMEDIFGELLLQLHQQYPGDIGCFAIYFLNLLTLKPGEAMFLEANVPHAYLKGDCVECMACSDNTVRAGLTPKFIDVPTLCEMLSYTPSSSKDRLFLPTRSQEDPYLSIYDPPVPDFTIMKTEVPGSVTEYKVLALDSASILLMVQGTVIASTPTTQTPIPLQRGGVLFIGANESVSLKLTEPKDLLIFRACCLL

[18] = molecular target: T3, Mannose-6-phosphate isomerase; assay: inhibitors of human PMI, primary screen, biochemical, fluorescence intensity, coupled assay (AID 1209)
[19] = molecular target: T4, Rac GTPase-activating protein 1 (Homo sapiens, UniProt Q9H0H5); assay: MgcRacGAP GTPase-activating activity inhibitors, confirmation, biochemical, ADP Hunter fluorescence, primary and confirmatory (AID 624330); assay type: functional
T4 sequence (Q9H0H5 whole entry): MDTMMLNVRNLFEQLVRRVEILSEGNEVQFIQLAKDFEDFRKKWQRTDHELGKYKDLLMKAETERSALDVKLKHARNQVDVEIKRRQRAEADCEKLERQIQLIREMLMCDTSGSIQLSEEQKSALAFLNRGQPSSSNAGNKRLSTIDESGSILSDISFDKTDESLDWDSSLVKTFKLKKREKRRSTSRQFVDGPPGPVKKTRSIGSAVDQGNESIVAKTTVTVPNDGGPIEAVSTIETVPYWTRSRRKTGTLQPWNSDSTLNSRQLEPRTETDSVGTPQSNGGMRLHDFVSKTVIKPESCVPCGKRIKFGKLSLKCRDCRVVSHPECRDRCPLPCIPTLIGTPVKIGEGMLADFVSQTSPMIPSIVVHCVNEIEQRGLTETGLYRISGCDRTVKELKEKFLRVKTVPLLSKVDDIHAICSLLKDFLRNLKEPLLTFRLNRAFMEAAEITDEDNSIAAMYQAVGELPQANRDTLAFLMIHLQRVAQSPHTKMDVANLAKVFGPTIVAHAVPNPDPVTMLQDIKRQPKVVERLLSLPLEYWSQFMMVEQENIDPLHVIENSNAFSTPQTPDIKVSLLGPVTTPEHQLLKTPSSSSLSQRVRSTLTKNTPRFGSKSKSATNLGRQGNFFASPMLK

[20] = molecular target: T5, Aryl hydrocarbon receptor (Homo sapiens, UniProt P35869); assay: Luminescence-based cell-based high throughput dose response assay for activators of the Aryl Hydrocarbon Receptor (AHR). [Related pubchem assays: 2796 (Primary screen (AHR activators in singlicate)), 2845 (Confirmation screen (AHR activators in triplicate)), 434939 (Counterscreen (PXR activators in triplicate)), 2804 (Summary (AHR activators))]; assay type: ADME
T5 sequence (P35869 whole entry): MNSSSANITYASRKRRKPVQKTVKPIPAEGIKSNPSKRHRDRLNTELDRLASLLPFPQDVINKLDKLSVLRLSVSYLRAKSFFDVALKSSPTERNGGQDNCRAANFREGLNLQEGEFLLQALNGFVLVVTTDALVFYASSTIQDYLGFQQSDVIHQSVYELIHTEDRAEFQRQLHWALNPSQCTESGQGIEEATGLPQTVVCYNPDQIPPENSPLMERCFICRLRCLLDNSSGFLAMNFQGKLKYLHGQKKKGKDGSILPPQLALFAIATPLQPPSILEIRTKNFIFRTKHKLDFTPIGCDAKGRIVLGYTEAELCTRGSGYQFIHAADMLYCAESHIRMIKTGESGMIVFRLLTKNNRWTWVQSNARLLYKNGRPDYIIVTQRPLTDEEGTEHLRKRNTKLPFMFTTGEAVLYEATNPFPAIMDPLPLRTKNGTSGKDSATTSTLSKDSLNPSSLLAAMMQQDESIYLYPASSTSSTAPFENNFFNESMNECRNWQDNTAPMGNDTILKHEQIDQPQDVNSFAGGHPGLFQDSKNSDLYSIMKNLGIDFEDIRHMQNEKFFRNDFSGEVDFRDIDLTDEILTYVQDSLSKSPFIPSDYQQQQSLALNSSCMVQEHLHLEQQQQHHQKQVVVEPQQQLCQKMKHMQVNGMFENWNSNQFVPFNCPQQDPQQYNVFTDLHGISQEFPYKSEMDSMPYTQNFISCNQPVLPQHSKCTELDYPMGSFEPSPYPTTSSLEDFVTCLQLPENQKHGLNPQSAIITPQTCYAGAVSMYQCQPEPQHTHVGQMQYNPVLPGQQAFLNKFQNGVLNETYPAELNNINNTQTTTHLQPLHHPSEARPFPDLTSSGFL

[21] = molecular target: Dual specificity tyrosine-phosphorylation-regulated kinase 1A (Rattus norvegicus, UniProt Q63470); assay type: biochemical, Homo sapiens
[22] = molecular target: Mitogen-activated protein kinase 10 (Homo sapiens, UniProt P53779); assay: Dose response biochemical screening assay for inhibitors of c-Jun N-Terminal Kinase 3 (JNK3). [Related pubchem assays: 746 ]
[23] = molecular target: Induced myeloid leukemia cell differentiation protein Mcl-1 (Homo sapiens, UniProt Q07820); assay type: functional
Protein Tat = Protein Tat (Human immunodeficiency virus type 1 group M subtype B (isolate HXB2)(HIV-1), UniProt P04608); assay type: functional;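 also: tat binding to TAR RNA read out by fluorescence polarization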
Hexokinase HKDC1 = molecular target: T6, Hexokinase HKDC1 (Homo sapiens, UniProt Q2TB90); assay: HKDC1 hexokinase inhibitors, dose response, biochemical, W721R variant (AID 504729); assay type: functional
T6 sequence (Q2TB90 whole entry): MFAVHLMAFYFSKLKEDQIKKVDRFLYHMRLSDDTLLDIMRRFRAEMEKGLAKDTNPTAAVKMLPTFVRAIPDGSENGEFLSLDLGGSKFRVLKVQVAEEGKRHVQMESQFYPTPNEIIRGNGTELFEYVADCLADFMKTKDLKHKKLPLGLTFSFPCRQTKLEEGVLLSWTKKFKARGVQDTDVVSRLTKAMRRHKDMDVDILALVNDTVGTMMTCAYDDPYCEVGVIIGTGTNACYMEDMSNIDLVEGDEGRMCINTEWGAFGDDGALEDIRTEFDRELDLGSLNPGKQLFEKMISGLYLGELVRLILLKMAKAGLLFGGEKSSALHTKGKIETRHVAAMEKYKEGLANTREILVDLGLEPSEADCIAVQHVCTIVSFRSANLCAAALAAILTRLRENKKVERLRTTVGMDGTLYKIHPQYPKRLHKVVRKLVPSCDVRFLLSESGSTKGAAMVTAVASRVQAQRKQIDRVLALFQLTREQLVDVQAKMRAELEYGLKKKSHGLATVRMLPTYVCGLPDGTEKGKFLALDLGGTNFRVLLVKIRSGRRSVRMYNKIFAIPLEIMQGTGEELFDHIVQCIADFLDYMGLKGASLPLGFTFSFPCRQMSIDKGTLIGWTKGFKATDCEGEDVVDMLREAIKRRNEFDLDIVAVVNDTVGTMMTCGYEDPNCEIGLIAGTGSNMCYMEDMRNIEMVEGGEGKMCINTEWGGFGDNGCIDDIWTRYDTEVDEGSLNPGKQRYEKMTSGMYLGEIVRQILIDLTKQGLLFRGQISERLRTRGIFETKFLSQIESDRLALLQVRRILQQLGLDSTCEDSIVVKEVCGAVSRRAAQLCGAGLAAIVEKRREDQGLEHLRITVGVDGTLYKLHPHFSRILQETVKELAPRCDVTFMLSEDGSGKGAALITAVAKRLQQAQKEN

Large T antigen = Large T antigen (Simian virus 40, UniProt P03070); assay type: functional, Betapolyomavirus macacae;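 also: Confirmatory-stage PubChem screen for compounds that inhibit SV40 T antigen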
[24] = molecular target: Eukaryotic translation initiation factor 4E (Mus musculus, UniProt P63073); assay: eIF4E–eIF4G protein interaction inhibitors, dose response, biochemical, TR-FRET (AID 855); assay type: functional;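 also: potency for disrupting eIF4E binding to eIF4GI seen as loss of FRET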
Chain of Eukaryotic translation initiation factor 4E (P63073 whole entry): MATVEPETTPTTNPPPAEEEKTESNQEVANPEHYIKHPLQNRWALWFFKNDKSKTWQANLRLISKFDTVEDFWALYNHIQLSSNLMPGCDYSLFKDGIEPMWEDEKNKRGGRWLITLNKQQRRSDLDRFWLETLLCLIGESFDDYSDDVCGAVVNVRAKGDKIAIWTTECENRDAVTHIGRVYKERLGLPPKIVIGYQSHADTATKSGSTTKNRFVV

Chain of G-protein coupled receptor 55 (Q9Y2T6 whole entry): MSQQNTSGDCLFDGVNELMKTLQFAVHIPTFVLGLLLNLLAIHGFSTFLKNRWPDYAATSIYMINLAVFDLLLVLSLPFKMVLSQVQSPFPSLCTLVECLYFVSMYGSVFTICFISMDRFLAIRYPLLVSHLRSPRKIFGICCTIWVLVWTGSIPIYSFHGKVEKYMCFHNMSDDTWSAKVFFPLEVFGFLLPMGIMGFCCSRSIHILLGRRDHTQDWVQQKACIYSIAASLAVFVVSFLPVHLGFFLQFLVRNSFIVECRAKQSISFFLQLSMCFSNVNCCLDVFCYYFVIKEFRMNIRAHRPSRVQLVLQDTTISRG
Chain of Induced myeloid leukemia cell differentiation protein Mcl-1 (Q07820 whole entry): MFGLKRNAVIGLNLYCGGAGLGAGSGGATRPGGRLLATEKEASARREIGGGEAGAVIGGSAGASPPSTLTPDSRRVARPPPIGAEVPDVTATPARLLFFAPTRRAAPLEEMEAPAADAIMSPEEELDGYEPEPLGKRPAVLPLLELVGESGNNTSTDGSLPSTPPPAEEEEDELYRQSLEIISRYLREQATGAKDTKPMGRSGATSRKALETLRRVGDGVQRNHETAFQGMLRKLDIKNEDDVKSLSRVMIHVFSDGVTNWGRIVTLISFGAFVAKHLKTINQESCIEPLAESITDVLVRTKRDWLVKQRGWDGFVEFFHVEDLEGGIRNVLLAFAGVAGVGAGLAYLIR
Chain of 14-3-3 protein gamma (P61981 whole entry, the tested form may be a part): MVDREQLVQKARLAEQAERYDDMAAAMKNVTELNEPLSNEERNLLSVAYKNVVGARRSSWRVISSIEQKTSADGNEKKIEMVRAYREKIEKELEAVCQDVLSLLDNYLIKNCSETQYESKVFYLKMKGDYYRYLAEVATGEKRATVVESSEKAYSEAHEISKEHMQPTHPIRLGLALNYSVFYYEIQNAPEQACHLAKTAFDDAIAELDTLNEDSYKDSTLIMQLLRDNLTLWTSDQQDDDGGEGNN
Chain of NADPH oxidase 1 (Q9Y5S8 whole entry): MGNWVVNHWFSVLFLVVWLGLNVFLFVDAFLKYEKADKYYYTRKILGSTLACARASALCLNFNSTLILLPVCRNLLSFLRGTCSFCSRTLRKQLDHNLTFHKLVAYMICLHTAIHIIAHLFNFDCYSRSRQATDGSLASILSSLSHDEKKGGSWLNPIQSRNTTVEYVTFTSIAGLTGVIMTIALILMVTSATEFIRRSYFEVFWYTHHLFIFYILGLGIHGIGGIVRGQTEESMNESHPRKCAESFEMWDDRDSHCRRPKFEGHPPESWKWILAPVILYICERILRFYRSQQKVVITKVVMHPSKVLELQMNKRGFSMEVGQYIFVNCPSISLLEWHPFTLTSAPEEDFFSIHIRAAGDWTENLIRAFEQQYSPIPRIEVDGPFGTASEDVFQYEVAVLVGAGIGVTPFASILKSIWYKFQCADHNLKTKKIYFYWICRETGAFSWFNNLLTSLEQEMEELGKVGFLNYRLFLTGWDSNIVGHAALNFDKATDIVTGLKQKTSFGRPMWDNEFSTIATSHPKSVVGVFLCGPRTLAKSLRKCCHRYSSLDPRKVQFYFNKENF
Chain of Peroxisome proliferator-activated receptor gamma/Nuclear receptor coactivator 3 (P37231 whole entry): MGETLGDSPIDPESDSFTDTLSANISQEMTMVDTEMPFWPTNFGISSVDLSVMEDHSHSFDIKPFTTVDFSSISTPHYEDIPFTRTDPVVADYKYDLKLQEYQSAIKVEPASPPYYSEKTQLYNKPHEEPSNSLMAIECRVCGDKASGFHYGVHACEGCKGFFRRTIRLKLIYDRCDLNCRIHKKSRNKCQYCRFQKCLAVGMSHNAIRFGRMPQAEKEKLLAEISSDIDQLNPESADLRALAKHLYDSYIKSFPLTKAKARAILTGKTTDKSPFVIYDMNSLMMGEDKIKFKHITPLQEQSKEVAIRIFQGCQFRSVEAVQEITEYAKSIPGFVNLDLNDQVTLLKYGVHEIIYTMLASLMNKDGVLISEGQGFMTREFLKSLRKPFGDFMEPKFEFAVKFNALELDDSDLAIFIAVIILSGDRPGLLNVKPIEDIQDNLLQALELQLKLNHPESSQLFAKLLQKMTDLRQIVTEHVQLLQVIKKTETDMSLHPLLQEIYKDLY
Chain of Peroxisome proliferator-activated receptor gamma/Nuclear receptor coactivator 3 (Q9Y6Q9 whole entry, further chain): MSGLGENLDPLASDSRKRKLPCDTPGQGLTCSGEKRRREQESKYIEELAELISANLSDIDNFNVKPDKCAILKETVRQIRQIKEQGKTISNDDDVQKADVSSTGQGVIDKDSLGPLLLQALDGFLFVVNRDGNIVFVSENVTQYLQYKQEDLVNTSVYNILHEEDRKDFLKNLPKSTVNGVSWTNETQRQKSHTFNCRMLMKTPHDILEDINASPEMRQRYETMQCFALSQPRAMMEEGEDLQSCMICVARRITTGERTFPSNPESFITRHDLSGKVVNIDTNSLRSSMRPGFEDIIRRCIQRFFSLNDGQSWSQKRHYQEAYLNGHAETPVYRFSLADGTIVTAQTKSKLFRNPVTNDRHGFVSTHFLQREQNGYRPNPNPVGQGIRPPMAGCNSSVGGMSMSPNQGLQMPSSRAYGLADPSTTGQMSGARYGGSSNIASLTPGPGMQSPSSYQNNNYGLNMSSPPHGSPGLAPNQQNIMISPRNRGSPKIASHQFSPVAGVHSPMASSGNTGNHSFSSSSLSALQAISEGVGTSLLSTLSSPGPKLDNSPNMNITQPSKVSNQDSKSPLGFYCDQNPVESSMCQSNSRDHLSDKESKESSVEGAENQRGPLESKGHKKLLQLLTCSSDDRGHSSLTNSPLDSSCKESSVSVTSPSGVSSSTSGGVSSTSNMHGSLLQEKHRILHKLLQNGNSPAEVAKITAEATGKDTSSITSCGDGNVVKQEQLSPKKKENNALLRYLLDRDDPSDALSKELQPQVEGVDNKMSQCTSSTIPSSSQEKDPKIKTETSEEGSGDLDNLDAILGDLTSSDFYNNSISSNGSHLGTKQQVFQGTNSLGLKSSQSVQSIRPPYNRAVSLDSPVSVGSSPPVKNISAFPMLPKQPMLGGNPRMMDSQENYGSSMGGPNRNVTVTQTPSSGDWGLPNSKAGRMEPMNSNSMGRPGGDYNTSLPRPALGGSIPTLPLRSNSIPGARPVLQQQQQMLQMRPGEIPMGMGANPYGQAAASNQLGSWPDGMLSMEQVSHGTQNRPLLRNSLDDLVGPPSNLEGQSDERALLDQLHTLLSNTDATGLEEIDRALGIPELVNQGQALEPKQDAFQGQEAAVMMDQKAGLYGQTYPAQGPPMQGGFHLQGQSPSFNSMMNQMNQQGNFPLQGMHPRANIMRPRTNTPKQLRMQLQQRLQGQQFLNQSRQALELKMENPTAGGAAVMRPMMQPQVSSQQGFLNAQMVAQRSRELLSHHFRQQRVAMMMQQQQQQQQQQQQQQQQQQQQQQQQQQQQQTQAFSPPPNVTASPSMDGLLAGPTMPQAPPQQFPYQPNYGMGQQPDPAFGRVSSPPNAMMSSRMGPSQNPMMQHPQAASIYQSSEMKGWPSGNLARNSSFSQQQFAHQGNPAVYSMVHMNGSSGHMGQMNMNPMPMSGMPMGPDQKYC
Chain of Large T antigen (P03070 whole entry): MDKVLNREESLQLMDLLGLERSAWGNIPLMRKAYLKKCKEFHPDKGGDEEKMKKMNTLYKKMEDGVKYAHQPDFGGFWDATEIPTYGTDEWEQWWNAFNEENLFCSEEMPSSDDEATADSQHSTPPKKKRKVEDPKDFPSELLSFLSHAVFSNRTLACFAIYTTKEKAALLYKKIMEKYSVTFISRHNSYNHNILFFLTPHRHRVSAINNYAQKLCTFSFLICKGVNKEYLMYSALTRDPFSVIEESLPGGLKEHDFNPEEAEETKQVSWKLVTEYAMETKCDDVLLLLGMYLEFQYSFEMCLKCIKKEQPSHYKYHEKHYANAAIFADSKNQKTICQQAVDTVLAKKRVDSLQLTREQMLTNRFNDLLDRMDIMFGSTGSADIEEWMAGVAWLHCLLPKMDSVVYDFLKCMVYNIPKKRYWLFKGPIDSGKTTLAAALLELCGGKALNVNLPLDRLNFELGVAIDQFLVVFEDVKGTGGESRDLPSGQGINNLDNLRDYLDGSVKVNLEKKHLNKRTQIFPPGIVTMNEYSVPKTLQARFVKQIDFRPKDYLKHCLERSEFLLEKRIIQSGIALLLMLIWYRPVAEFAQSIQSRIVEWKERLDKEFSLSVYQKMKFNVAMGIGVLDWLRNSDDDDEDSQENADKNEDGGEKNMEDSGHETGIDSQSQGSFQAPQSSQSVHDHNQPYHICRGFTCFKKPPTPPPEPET
Chain of Protein Tat (P04608 whole entry): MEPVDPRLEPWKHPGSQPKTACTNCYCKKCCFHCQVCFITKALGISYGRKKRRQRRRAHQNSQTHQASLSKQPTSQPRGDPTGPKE
Chain of Mitogen-activated protein kinase 10 (P53779 whole entry): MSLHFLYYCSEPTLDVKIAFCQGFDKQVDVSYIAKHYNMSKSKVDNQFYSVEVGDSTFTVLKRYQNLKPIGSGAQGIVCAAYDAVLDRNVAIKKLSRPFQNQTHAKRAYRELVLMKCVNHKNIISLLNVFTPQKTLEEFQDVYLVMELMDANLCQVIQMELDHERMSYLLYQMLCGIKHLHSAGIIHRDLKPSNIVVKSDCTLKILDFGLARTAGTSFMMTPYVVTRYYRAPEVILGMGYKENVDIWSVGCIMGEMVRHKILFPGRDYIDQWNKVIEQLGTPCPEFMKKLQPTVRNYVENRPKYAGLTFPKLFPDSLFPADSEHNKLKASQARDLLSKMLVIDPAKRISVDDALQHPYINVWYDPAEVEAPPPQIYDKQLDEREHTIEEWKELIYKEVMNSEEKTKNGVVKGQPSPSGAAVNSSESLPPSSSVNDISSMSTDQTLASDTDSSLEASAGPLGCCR

O=C(CSc1nc2ccccc2o1)N1c2ccccc2Sc2ccc(C(F)(F)F)cc21
IC50 (NADPH oxidase 1): > 50 µM (not active)
EC50 [1]: > 32 µM (inactive)

COc1ccc(Nc2nc(N)nc(CCl)n2)cc1
EC50 (BJ [2]): 0.498 µM (inconclusive)
EC50 (BJ [3]): 3.57 µM (active)
EC50 [4]: 2.25 µM (active)
IC50 [5]: 1.45 µM (active)
EC50 (BJ [6]): > 150 µM (inconclusive)

Cn1c(SCC(=O)Nc2cccc(Br)c2)nnc1-c1cc2ccccc2o1
EC50 [7]: 18.3 µM (not active)
EC50 [8]: 14.5 µM (not active)
IC50 [9]: 0.152 µM (active)
IC50 [10]: 0.167 µM (active)
EC50 [11]: 13.3 µM (not active)

CC1=CC(C#N)(C#N)C(C#N)(C#N)C(c2ccccc2)N1 (centres undefined)
EC50 [12]: 2.46 µM (active)
IC50 (14-3-3 protein gamma): 3.15 µM (active)
EC50 [13]: 3.14 µM (active)

Cc1ccc(/C=[N+](\[O-])c2ccc(N(C)C)cc2)c2nsnc12
EC50 [14]: 8.84 µM (inconclusive)
AC50 [15]: 7.84 µM (active)
EC50 [16]: 2.41 µM (active)
IC50 [17]: > 50 µM (not active)
IC50 [18]: > 50 µM (not active)
IC50 [19]: 9.25 µM (active)

Cc1ccc(-n2c(=O)[nH]cc(C(=O)Nc3ccc4c(c3)OCO4)c2=O)cc1C
EC50 [20]: 7.75 µM (active)

C/C(=N/Cc1cccnc1)C1=C(O)c2ccccc2C1=O
AC50 [21]: 12.9 µM (active)
IC50 [22]: 20 µM (not active)

O=C1NC(=S)N(c2ccc(F)cc2)C(=O)/C1=C\c1ccoc1
IC50 [23]: 1.53 µM (active)
IC50 (Protein Tat): > 25 µM (active)
IC50 (Hexokinase HKDC1): 10.7 µM (active)
IC50 (Large T antigen): 12.8 µM (active)
IC50 [24]: 50 µM (inactive)
